Results published in patent US9278903B2, “Crystal form of prostaglandin analogue, and preparation method and use thereof” (Shanghai Techwell Biopharmaceutical Co., Ltd., priority 2012, dated 2016).
Values belong to the compound of their own block, whether it stands above or below them.

Tests used:
[1] = cited from earlier work
[2] = Stability comparison at 40° C. (HPLC purity); type: physicochemical
Procedure: (§1) Column: 4.6×250 mm 5 μm C18 column; flow rate: 2 ml/min; injection volume: 10 μl; column temperature: 35° C.; detection wavelength: 217 nm; mobile phase: acetonitrile/water/trifluoroacetic acid; Elution condition: water (60%): acetonitrile (40%): trifluoroacetic acid (0.1%); detection limit: 10 ng.
The purity mentioned in the following Examples is HPLC purity.
Compound I from example 2, example 3 and example 4 were obtained, and subjected to stability test at 40° C., respectively. […] Therefore, crystalline form A of compound I prepared by the method of the present invention has unique stability.

[3] = Storage stability of crystalline form A (HPLC); type: physicochemical
Procedure: as §1
[…] […] Therefore, crystalline form A of compound I prepared by the method of the present invention has unique stability.

[4] = cited from earlier work; remark: listed apart in the source

Compound: CCCCC[C@H](O)/C=C/[C@@H]1[C@H]2C/C(=C/CCCC(=O)O)O[C@H]2C[C@H]1O [Epoprostenol]
Half-life in circulation [1]: 3 to 5 min

Purity at 0 day (40° C.) ([2]; 0 day): 99.90%
Purity at 10 day (40° C.) ([2]; 10 day): 99.91%
Purity at 30 day (40° C.) ([2]; 30 day): 99.89%
Purity at 90 day (40° C.) ([2]; 90 day): 99.88%
Degradation on storage (HPLC) ([3]; stored at 0° C. for 12 months): did not degrade at all
Degradation on storage (HPLC) ([3]; stored at 20° C. for 6 months): did not degrade at all
Degradation on storage (HPLC) ([3]; stored at 40° C. for 2 months): did not degrade at all
Compound: CCCCC[C@H](O)CC[C@@H]1[C@H]2Cc3cccc(OCC(=O)O)c3C[C@H]2C[C@H]1O [Example 4]

Compound: CCCCC[C@H](O)CC[C@@H]1[C@H]2Cc3cccc(OCC(=O)O)c3C[C@H]2C[C@H]1O [Treprostinil]
Stability under physiological conditions [4]: stable under physiological conditions
